# According to patent US20250034088A1, “LIPIDS AND USES THEREOF” (TAIWAN BIO-MANUFACTURING CORPORATION, priority 2023, published 2025):
# How the values were obtained:
# [1] = mRNA encapsulation efficiency by RiboGreen assay; type: physicochemical; details: FLuc mRNA-loaded LNP made with the lipid; for Encap)-sulation (%: Table 1
# Procedure: (§1) The Firefly luciferase (FLuc) reporter mRNA-loaded lipid nanoparticles (LNPs) were formulated by NANOASSEMBLR® IGNITE™. Briefly, the lipid, cholesterol, 1,2-dimyristoyl-rac-glycero-3-methoxypolyethylene glycol-2000 (DMG-PEG2000), and […] (DSPC) mixture was prepared in ethanolic solution at the % mole ratio of […]. Three units of FLuc mRNA was dissolved in 25 mM sodium acetate pH 5.0 buffer and one unit of lipid mixture were rapidly combined in the microfluidic mixing cartridge at an amine-to-phosphate (N/P) ratio constant at 6, and the instrument flow rate set at 12 mL/min. The mRNA-LNPs performed a 40-fold dilution of calcium and magnesium-free phosphate-buffered saline (PBS) to reach pH neutral. Then, LNPs were concentrated using Amicon® Ultra-15 Centrifugal Filter Unit.
# (§2) The mRNA-LNPs were characterized in terms of hydrodynamic size (z-average diameter), zeta potential, and polydispersity index by ZETASIZER™ PRO BLUE (MALVERN PANALYTICAL®). A QUANT-IT™ RIBOGREEN assay kit (THERMOFISHER®) was conducted to identify the mRNA concentration and encapsulation efficiency. In brief, mRNA-LNPs were diluted in equal volumes of Tris/EDTA (TE) buffer or 2% Triton X-100 in TE buffer. After that, a RIBOGREEN reagent was added to each sample and incubated at 37° C. in absence of light for 15 min. The fluorescence intensity (Ex/Em 480/520 nm) was detected on a TECAN™ Microplate reader. The encapsulation efficiency (E.E) can be calculated by the formula:
# E.E(%)=(Total mRNA concentration−Unencapsulated mRNA concentration)/(Total mRNA concentration)×100%
# [2] = LNP hydrodynamic size, polydispersity index and zeta potential by Zetasizer; type: physicochemical; details: FLuc mRNA-loaded LNP
# Procedure: as §1
# as §2, with “formula: […]” for “formula:”
# HEPG2 cells [3] = test: Transfection efficiency of FLuc mRNA-LNPs in HEPG2 cells (luminescence); type: cell-based; details: 18 hours
# Procedure: (§3) To investigate the potential and cytotoxicity of mRNA-LNP made from novel lipids, FLuc mRNA (TRILINK®) was encapsulated into LNPs and transfected to the cell line. HEPG2 cells were maintained at 37° C. under 5% CO2 in a DMEM medium with 10% fetal bovine serum. Cells were seeded at 4×10^4 cells/well and treated with FLuc mRNA-LNPs for 18 hours while cell confluency reach 70%. To explore transfection efficiency, HEPG2 cells were treated with D-luciferin and mixed thoroughly for another incubation of 5 min at 37° C. The luminescence intensity was recorded using M200 Microplate Reader (TECAN®). Cell viability was evaluated by Cell Counting Kit-8 (SIGMA-ALDRICH®) and the absorbance was measured at 450 nm.
# HEPG2 cells [4] = test: Cytotoxicity in HEPG2 cells (Cell Counting Kit-8); type: cell-based; details: FLuc mRNA-LNPs, 18 hours
# Procedure: as §3
Encap)-sulation (% [1],LNP zeta potential (mV) ([2]; Table 1),PDI ([2]; Table 1),"LNP size (nm) ([2]; z-average diameter, Table 1)",Encapsulation (%) ([1]; Table 2),LNP size (nm) ([2]; Table 2),LNP zeta potential (mV) ([2]; Table 2),PDI ([2]; Table 2),SMILES,"Transfection efficiency (relative to SM-102, %) (HEPG2 cells [3])",Cytotoxicity in HEPG2 (HEPG2 cells [4])
98.5%,−7.06 mV,0.026,73.80 nm,,,,,"CCCCCCCCC(CCCCCCCC)OC(=O)CCO[C@H]1CN(CCO)C[C@H]1OCCC(=O)OC(CCCCCCCC)CCCCCCCC [Compound 1, di(heptadecan-9-yl)3,3′-(((3R,4S)-1-(2-hydroxyethyl)pyrrolidine-3,4-diyl)bis(oxy))dipropionate]",,
98.1%,−5.73 mV,0.033,74.65 nm,,,,,CCCCCCCCC(CCCCCCCC)OC(=O)CCO[C@H]1CN(CCCO)C[C@H]1OCCC(=O)OC(CCCCCCCC)CCCCCCCC [Compound 2],,
97.92%,6.98 mV,0.016,98.84 nm,,,,,"CCCCCCCCC(CCCCCCCC)OC(=O)CCCCO[C@H]1CN(CCCO)C[C@H]1OCCCCC(=O)OC(CCCCCCCC)CCCCCCCC [Compound 3, di(heptadecan-9-yl)5,5′-(((3S,4R)-1-(3-hydroxypropyl)pyrrolidine-3,4-diyl)bis(oxy))dipentanoate]",,
98.43%,1.03 mV,0.015,79.20 nm,,,,,"CCCCCCCCC(CCCCCCCC)OC(=O)CCCCO[C@H]1CN(CCO)C[C@H]1OCCCCC(=O)OC(CCCCCCCC)CCCCCCCC [Compound 4, di(heptadecan-9-yl)5,5′-(((3S,4R)-1-(2-hydroxyethyl)pyrrolidine-3,4-diyl)bis(oxy))dipentanoate]",,
97.22%,2.41 mV,0.025,87.10 nm,,,,,"CCCCCCCCC(CCCCCCCC)OC(=O)CCO[C@H]1CN(CCCCO)C[C@H]1OCCC(=O)OC(CCCCCCCC)CCCCCCCC [Compound 7, di(heptadecan-9-yl)3,3′-(((3R,4S)-1-(4-hydroxybutyl)pyrrolidine-3,4-diyl)bis(oxy))dipropionate]",,
97.58%,10.95 mV,0.014,80.71 nm,97.58%,80.71 nm,10.95 mV,0.014,"CCCCCCCCC(CCCCCCCC)OC(=O)CCCCCO[C@H]1CN(CCCO)C[C@H]1OCCCCCC(=O)OC(CCCCCCCC)CCCCCCCC [Compound 11, di(heptadecan-9-yl)6,6′-(((3R,4S)-1-(3-hydroxypropyl)pyrrolidine-3,4-diyl)bis(oxy))dihexanoate]",100%,— (The toxicity of compounds 11 and 14 is less than 10%)
96.99%,7.83 mV,0.039,78.35 nm,,,,,"CCCCCCCCC(CCCCCCCC)OC(=O)CCCCCO[C@H]1CN(CCCCCO)C[C@H]1OCCCCCC(=O)OC(CCCCCCCC)CCCCCCCC [Compound 12, di(heptadecan-9-yl)6,6′-(((3R,4S)-1-(5-hydroxypentyl)pyrrolidine-3,4-diyl)bis(oxy))dihexanoate]",,
97.39%,12.45 mV,0.046,81.29 nm,,,,,"CCCCCCCCC(CCCCCCCC)OC(=O)CCCCCO[C@H]1CN(CCCCO)C[C@H]1OCCCCCC(=O)OC(CCCCCCCC)CCCCCCCC [Compound 13, di(heptadecan-9-yl)6,6′-(((3R,4S)-1-(4-hydroxybutyl)pyrrolidine-3,4-diyl)bis(oxy))dihexanoate]",,
,,,,,,,,"CCCCCCCCC(CCCCCC)C(=O)OCCCCCCO[C@H]1CN(CCCO)C[C@H]1OCCCCCCOC(=O)C(CCCCCC)CCCCCCCC (stereo partly drawn) [Compound 14, (((3S,4R)-1-(3-hydroxypropyl)pyrrolidine-3,4-diyl)bis(oxy))bis(hexane-6,1-diyl)bis(hexyldecanoate)]",105%,— (The toxicity of compounds 11 and 14 is less than 10%)
98.16%,8.00 mV,0.03,95.10 nm,,,,,"CCCCCCCCCCC(CCCCCCCC)COC(=O)CCCCO[C@H]1CN(CCCO)C[C@H]1OCCCCC(=O)OCC(CCCCCCCC)CCCCCCCCCC (stereo partly drawn) [Compound 17, bis(2-octyldodecyl)5,5′-(((3R,4S)-1-(3-hydroxypropyl)pyrrolidine-3,4-diyl)bis(oxy))dipentanoate]",,
97.57%,9.52 mV,0.03,86.61 nm,,,,,"CCCCCCCCCCC(CCCCCCCC)COC(=O)CCCCO[C@H]1CN(CCCCCO)C[C@H]1OCCCCC(=O)OCC(CCCCCCCC)CCCCCCCCCC (stereo partly drawn) [Compound 18, bis(2-octyldodecyl)5,5′-(((3R,4S)-1-(5-hydroxypentyl)pyrrolidine-3,4-diyl)bis(oxy))dipentanoate]",,
97.31%,6.25 mV,0.05,79.74 nm,,,,,"CCCCCCCCCCC(CCCCCCCC)COC(=O)CCCCO[C@H]1CN(CCCCCCO)C[C@H]1OCCCCC(=O)OCC(CCCCCCCC)CCCCCCCCCC (stereo partly drawn) [Compound 19, bis(2-octyldodecyl)5,5′-(((3R,4S)-1-(6-hydroxyhexyl)pyrrolidine-3,4-diyl)bis(oxy))dipentanoate]",,
97.36%,15.00 mV,0.06,88.33 nm,,,,,"CCCCCCC(CCCC)COC(=O)CCCCO[C@H]1CN(CCCO)C[C@H]1OCCCCC(=O)OCC(CCCC)CCCCCC (stereo partly drawn) [Compound 20, bis(2-butyloctyl) 5,5′-(((3R,4S)-1-(3-hydroxypropyl)pyrrolidine-3,4-diyl)bis(oxy))dipentanoate]",,
98.87%,14.91 mV,0.0532,93.39 nm,,,,,"CCCCCCC(CCCC)COC(=O)CCCCO[C@H]1CN(CCCCCO)C[C@H]1OCCCCC(=O)OCC(CCCC)CCCCCC (stereo partly drawn) [Compound 21, bis(2-butyloctyl) 5,5′-(((3R,4S)-1-(5-hydroxypentyl)pyrrolidine-3,4-diyl)bis(oxy))dipentanoate]",,
98.18%,10.78 mV,0.05,148.20 nm,,,,,"CCCCCCC(CCCC)COC(=O)CCCCO[C@H]1CN(CCCCCCO)C[C@H]1OCCCCC(=O)OCC(CCCC)CCCCCC (stereo partly drawn) [Compound 22, bis(2-butyloctyl) 5,5′-(((3R,4S)-1-(6-hydroxyhexyl)pyrrolidine-3,4-diyl)bis(oxy))dipentanoate]",,
